In ChEMBL document CHEMBL1201862, “PubChem BioAssay data set” (2004):
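In this assay, cells in 96-well plates receive the compound at five concentrations for 48 hours. Endpoints are linearly interpolated between the surrounding concentrations. At the GI50, growth is halved.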 Activity calls are given as the source filed them. Rule as the data show it: active = GI50 up to about 1.1 µM and inactive = higher.

Assays:
Experiment in all cases: NCI-60 cell line screen, 48 h
786-0 = test system: 786-0
A498 = test system: A498
A549 = test system: A549
ACHN = test system: ACHN
CAKI-1 = test system: CAKI-1
CCRF-CEM = test system: CCRF-CEM
COLO 205 = test system: COLO 205
DLD-1 = test system: DLD-1
DMS-114 = test system: DMS-114
DMS-273 = test system: DMS-273
EKVX = test system: EKVX
HCC 2998 = test system: HCC 2998
HCT-116 = test system: HCT-116
HCT-15 = test system: HCT-15
HL-60 = test system: HL-60
HOP-62 = test system: HOP-62
HOP-92 = test system: HOP-92
HT-29 = test system: HT-29
IGROV-1 = test system: IGROV-1
K562 = test system: K562
KM-20L2 = test system: KM-20L2
KM12 = test system: KM12
LOX IMVI = test system: LOX IMVI
LXFL 529 = test system: LXFL 529
M14 = test system: M14
M19-MEL = test system: M19-MEL
MOLT-4 = test system: MOLT-4
Malme-3M = test system: Malme-3M
NCI-H226 = test system: NCI-H226
NCI-H23 = test system: NCI-H23
NCI-H460 = test system: NCI-H460
NCI-H522 = test system: NCI-H522
OVCAR-3 = test system: OVCAR-3
OVCAR-4 = test system: OVCAR-4
OVCAR-5 = test system: OVCAR-5
OVCAR-8 = test system: OVCAR-8
RPMI-8226 = test system: RPMI-8226
RXF 393 = test system: RXF 393
SF-268 = test system: SF-268
SF-295 = test system: SF-295
SF-539 = test system: SF-539
SK-MEL-28 = test system: SK-MEL-28
SK-MEL-2 = test system: SK-MEL-2
SK-MEL-5 = test system: SK-MEL-5
SK-OV-3 = test system: SK-OV-3
SN12C = test system: SN12C
SNB-19 = test system: SNB-19
SNB-75 = test system: SNB-75
SNB-78 = test system: SNB-78
SR = test system: SR
SW-620 = test system: SW-620
TK-10 = test system: TK-10
U-251 = test system: U-251
UACC-257 = test system: UACC-257
UO-31 = test system: UO-31
XF498 = test system: XF498
UACC-62 = test system: UACC-62

SMILES: COC(=O)[C@H]1C=C[C@@H](C)n2c(=O)c3ccccc3c(=O)n21
- GI50 (786-0): > 100 µM (inactive)
- GI50 (A498): > 100 µM (inactive)
- GI50 (A549): > 100 µM (inactive)
- GI50 (ACHN): > 100 µM (inactive)
- GI50 (CAKI-1): > 100 µM (inactive)
- GI50 (CCRF-CEM): > 100 µM (inactive)
- GI50 (COLO 205): > 100 µM (inactive)
- GI50 (DLD-1): > 100 µM (inactive)
- GI50 (DMS-114): > 100 µM (inactive)
- GI50 (DMS-273): > 100 µM (inactive)
- GI50 (EKVX): > 100 µM (inactive)
- GI50 (HCC 2998): > 100 µM (inactive)
- GI50 (HCT-116): > 100 µM (inactive)
- GI50 (HCT-15): > 100 µM
- GI50 (HL-60): > 100 µM (inactive)
- GI50 (HOP-62): > 100 µM (inactive)
- GI50 (HOP-92): > 100 µM (inactive)
- GI50 (HT-29): > 100 µM (inactive)
- GI50 (IGROV-1): > 100 µM (inactive)
- GI50 (K562): > 100 µM (inactive)
- GI50 (KM-20L2): > 100 µM (inactive)
- GI50 (KM12): > 100 µM (inactive)
- GI50 (LOX IMVI): > 100 µM (inactive)
- GI50 (LXFL 529): > 100 µM (inactive)
- GI50 (M14): > 100 µM (inactive)
- GI50 (M19-MEL): > 100 µM (inactive)
- GI50 (MOLT-4): > 100 µM (inactive)
- GI50 (Malme-3M): > 100 µM (inactive)
- GI50 (NCI-H226): > 100 µM (inactive)
- GI50 (NCI-H23): > 100 µM (inactive)
- GI50 (NCI-H460): > 100 µM (inactive)
- GI50 (NCI-H522): > 100 µM (inactive)
- GI50 (OVCAR-3): > 100 µM (inactive)
- GI50 (OVCAR-4): > 100 µM (inactive)
- GI50 (OVCAR-5): > 100 µM (inactive)
- GI50 (OVCAR-8): > 100 µM (inactive)
- GI50 (RPMI-8226): > 100 µM (inactive)
- GI50 (RXF 393): > 100 µM (inactive)
- GI50 (SF-268): > 100 µM (inactive)
- GI50 (SF-295): > 100 µM (inactive)
- GI50 (SF-539): > 100 µM (inactive)
- GI50 (SK-MEL-28): > 100 µM (inactive)
- GI50 (SK-MEL-2): > 100 µM (inactive)
- GI50 (SK-MEL-5): > 100 µM (inactive)
- GI50 (SK-OV-3): > 100 µM (inactive)
- GI50 (SN12C): > 100 µM (inactive)
- GI50 (SNB-19): > 100 µM (inactive)
- GI50 (SNB-75): > 100 µM (inactive)
- GI50 (SNB-78): > 100 µM (inactive)
- GI50 (SR): > 100 µM (inactive)
- GI50 (SW-620): > 100 µM (inactive)
- GI50 (TK-10): > 100 µM (inactive)
- GI50 (U-251): > 100 µM (inactive)
- GI50 (UACC-257): > 100 µM (inactive)
- GI50 (UO-31): > 100 µM (inactive)
- GI50 (XF498): > 100 µM (inactive)

SMILES: Cc1ccccc1NC(=O)C(=O)C(C1OC(=O)c2ccccc21)[N+](=O)[O-] (stereo not given)
- GI50 (A498): > 100 µM (inactive)
- GI50 (A549): > 100 µM (inactive)
- GI50 (ACHN): > 100 µM (inactive)
- GI50 (CAKI-1): > 100 µM (inactive)
- GI50 (CCRF-CEM): 68.7 µM (inactive)
- GI50 (COLO 205): > 100 µM (inactive)
- GI50 (DLD-1): > 100 µM (inactive)
- GI50 (DMS-114): > 100 µM (inactive)
- GI50 (DMS-273): > 100 µM (inactive)
- GI50 (EKVX): > 100 µM (inactive)
- GI50 (HCC 2998): > 100 µM (inactive)
- GI50 (HCT-116): > 100 µM (inactive)
- GI50 (HCT-15): > 100 µM
- GI50 (HL-60): > 100 µM (inactive)
- GI50 (HOP-62): > 100 µM (inactive)
- GI50 (HOP-92): > 100 µM (inactive)
- GI50 (HT-29): > 100 µM (inactive)
- GI50 (IGROV-1): > 100 µM (inactive)
- GI50 (K562): > 100 µM (inactive)
- GI50 (KM-20L2): > 100 µM (inactive)
- GI50 (KM12): > 100 µM (inactive)
- GI50 (LOX IMVI): > 100 µM (inactive)
- GI50 (LXFL 529): > 100 µM (inactive)
- GI50 (M14): > 100 µM (inactive)
- GI50 (M19-MEL): > 100 µM (inactive)
- GI50 (MOLT-4): > 100 µM (inactive)
- GI50 (NCI-H226): > 100 µM (inactive)
- GI50 (NCI-H23): > 100 µM (inactive)
- GI50 (NCI-H460): > 100 µM (inactive)
- GI50 (NCI-H522): 56.9 µM (inactive)
- GI50 (OVCAR-4): > 100 µM (inactive)
- GI50 (OVCAR-5): > 100 µM (inactive)
- GI50 (OVCAR-8): > 100 µM (inactive)
- GI50 (RPMI-8226): > 100 µM (inactive)
- GI50 (RXF 393): > 100 µM (inactive)
- GI50 (SF-268): > 100 µM (inactive)
- GI50 (SF-295): > 100 µM (inactive)
- GI50 (SF-539): > 100 µM (inactive)
- GI50 (SK-MEL-28): > 100 µM (inactive)
- GI50 (SK-MEL-2): > 100 µM (inactive)
- GI50 (SK-MEL-5): > 100 µM (inactive)
- GI50 (SK-OV-3): > 100 µM (inactive)
- GI50 (SN12C): > 100 µM (inactive)
- GI50 (SNB-19): > 100 µM (inactive)
- GI50 (SNB-75): > 100 µM (inactive)
- GI50 (SNB-78): > 100 µM (inactive)
- GI50 (SR): > 100 µM (inactive)
- GI50 (SW-620): > 100 µM (inactive)
- GI50 (TK-10): > 100 µM (inactive)
- GI50 (U-251): > 100 µM (inactive)
- GI50 (UACC-257): > 100 µM (inactive)
- GI50 (UACC-62): > 100 µM (inactive)
- GI50 (UO-31): > 100 µM (inactive)
- GI50 (XF498): > 100 µM (inactive)
